How the values were obtained:
[1] = target: T1, TIE2 intracellular domain/c-fms extracellular domain (TIE2/c-fms) chimeric protein (Homo sapiens, UniProt Q02763); test: TIE-2 Autophosphorylation Assay (TIE2-C), ELISA; assay type: cell-based; details: TIE2/c-fms expressing mouse 3T3 cells, MCSF activation; for IC50: read-out: TIE2-C pIC50 (converted)
T1 construct: TIE2 intracellular domain/c-fms extracellular domain (TIE2/c-fms) chimeric protein; expressed in transfected cells; host or cells: mouse 3T3 cells
Description: TIE-2 Autophosphorylation Assay (TIE2-C)
The TIE-2 autophosphorylation assay used an ELISA method and a TIE2 intracellular domain/c-fms extracellular domain (TIE2/c-fms) chimeric protein expressing mouse 3T3 cells. This assay measured the autophosphorylation level of TIE2 protein expressed in cells. The cells were cultured in high glucose DMEM (Sigma) containing 10% serum at 37° C. in a humidified 10% CO2, 90% air incubator. The test compound (diluted from a 10 mM stock in DMSO, final DMSO concentration was 0.1%) was incubated with TIE2/c-fms expressing cells for 1 hr in serum free DMEM in 96 well plates followed by the activation of TIE2/c-fms receptor using c-fms ligand, MCSF (macrophage colony stimulating factor). […] The cell extracts were transferred into Rat anti-c-fms antibody coated 96 well plates and incubated for 12 hrs at 4 degrees. The extracts were removed by aspiration and the plate was incubated with biotinylated anti-phosphotyrosine antibody, PT66 (Sigma) and then with HRP (Horseradish Peroxidase)-labeled streptavidin (PIERCE). The optical density at 450 nm derived from HRP catalyzed TMB was measured with an ARVO multilabel counter. (Wallac Berthold Japan). The percent inhibition of activity was calculated relative to blank control wells. […] The IC50 values were converted to pIC50 values, i.e., −log IC50 in Molar concentration.

[2] = test system: Human umbilical cord endothelial cells (HUVEC); test: VEGF-Driven Cellular Proliferation Assay, BrdU Incorporation Assay (VEGF-C); assay type: cell-based; details: for IC50: Homo sapiens, read-out: VEGF-C pIC50 (converted)
Description: VEGF-Driven Cellular Proliferation Assay. BrdU Incorporation Assay (VEGF-C)
Human umbilical cord endothelial cells (HUVEC, Clonetics, CC2519) were passaged in Type I collagen-coated 100-mm petridishes in EGM-MV medium (Clonetics, CC3125) at 37 C in a humidified 5% CO2, 95% air incubator. […] After incubation overnight at 37° C., the media were replaced with 100 ul of M199 serum-free medium containing compounds at various concentrations with 0.6% DMSO and gentamicin. The compounds were diluted in serum-free M199 medium from 10 mM stock solutions prepared in 100% DMS0. […] The cells were pulsed with bromodeoxyuridine (BrdU at 10 uM in serum-free M199) at 37° C. for an additional 24 h. […] The optical density at 450 nm was measured with a multilabel counter (ARVO SX, Wallac). The percent inhibition of cell growth was calculated relative to blank control wells. […] The IC50 values were converted to pIC50 values, i.e., −log IC50 in Molar concentration.

GST-VEGFR2 = target: T2, GST-VEGFR2 (Homo sapiens, UniProt P35968); test: VEGF-R2 Enzyme Assay (VEGF-E), LANCE method; assay type: biochemical; details: GST-VEGFR2, 75 uM ATP; for IC50: read-out: VEGF-E pIC50 (converted)
T2 construct: GST-VEGFR2, baculovirus expressed recombinant constructs of the intracellular domains of human TIE2 tagged by GST; made in house
Description: VEGF-R2 Enzyme Assay (VEGF-E)
The VEGF enzyme assay used the LANCE method (Wallac) and GST-VEGFR2, baculovirus expressed recombinant constructs of the intracellular domains of human […] tagged by GST. […] The reaction was stopped by the addition of EDTA (final concentration 50 mM). […] The APC signal was measured using an ARVO multilabel counter (Wallac Berthold, Japan). The percent inhibition of activity was calculated relative to blank control wells. […] The IC50 values were converted to pIC50 values, i.e., −log IC50 in Molar concentration.

[3] = target: T3, GST-TIE2 (intracellular domains of human TIE2) (Homo sapiens, UniProt Q02763); test: TIE-2 Enzyme assay (TIE2-E), LANCE method; assay type: biochemical; details: GST-TIE2, 80 uM ATP, D1–15 peptide; for IC50: read-out: TIE2-E pIC50 (converted)
T3 construct: made in house
Description: TIE-2 Enzyme assay (TIE2-E)
Preactivated GST-TIE2 was incubated for 30 mins at room temperature in 96 well plates with 1 uM D1–15 peptide, 80 uM ATP, 10 mM MgCl2, 0.1 mg/ml BSA and the test compound (diluted from a 10 mM stock in DMSO, final DMSO concentration was 2.4%) in 1 mM HEPES (pH 7.4). The reaction was stopped by the addition of EDTA (final concentration 45 mM). Streptavidin linked-APC (allophycocyanin, Molecular Probe) and Europium-labeled anti-phosphorylated tyrosine antibody (Wallac) were then added at the final concentration of 17 ug/well and 2.1 ug/well, respectively. The APC signal was measured using an ARVO multilabel counter. (Wallac Berthold Japan). The percent inhibition of activity was calculated relative to blank control wells. […] The IC50 values were converted to pIC50 values, i.e., −log IC50 in Molar concentration.

T1 sequence (Q02763 770-1124 limits assumed, change not shown): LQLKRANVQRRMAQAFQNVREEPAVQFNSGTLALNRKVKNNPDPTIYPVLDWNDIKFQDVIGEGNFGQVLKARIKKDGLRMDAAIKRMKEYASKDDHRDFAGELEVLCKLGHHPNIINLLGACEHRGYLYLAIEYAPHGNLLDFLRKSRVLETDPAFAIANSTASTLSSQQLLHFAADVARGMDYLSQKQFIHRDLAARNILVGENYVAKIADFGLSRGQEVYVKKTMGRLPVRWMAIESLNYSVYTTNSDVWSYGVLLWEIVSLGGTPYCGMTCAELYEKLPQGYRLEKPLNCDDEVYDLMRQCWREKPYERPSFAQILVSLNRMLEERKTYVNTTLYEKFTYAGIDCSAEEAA
T1 sequence (P07333 20-517 partner limits assumed): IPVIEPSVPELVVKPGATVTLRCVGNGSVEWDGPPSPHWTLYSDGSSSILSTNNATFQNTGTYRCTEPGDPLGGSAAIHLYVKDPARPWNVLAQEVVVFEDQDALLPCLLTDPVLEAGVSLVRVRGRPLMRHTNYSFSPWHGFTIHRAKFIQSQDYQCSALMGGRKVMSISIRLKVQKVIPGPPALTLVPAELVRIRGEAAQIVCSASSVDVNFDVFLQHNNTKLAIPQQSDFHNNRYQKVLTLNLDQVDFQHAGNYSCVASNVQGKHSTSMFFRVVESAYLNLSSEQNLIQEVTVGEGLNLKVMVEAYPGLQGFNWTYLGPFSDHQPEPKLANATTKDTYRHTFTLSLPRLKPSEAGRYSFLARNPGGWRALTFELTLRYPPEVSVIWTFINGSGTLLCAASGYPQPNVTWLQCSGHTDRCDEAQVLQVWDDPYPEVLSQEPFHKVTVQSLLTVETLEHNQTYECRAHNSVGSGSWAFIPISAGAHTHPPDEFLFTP
T1 sequence (P09603 33-190 partner limits assumed): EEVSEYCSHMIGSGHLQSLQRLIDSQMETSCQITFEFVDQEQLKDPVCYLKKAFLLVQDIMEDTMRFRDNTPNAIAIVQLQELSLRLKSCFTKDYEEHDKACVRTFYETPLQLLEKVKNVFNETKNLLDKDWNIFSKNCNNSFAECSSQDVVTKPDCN
T2 sequence (P35968 786-1356 limits assumed): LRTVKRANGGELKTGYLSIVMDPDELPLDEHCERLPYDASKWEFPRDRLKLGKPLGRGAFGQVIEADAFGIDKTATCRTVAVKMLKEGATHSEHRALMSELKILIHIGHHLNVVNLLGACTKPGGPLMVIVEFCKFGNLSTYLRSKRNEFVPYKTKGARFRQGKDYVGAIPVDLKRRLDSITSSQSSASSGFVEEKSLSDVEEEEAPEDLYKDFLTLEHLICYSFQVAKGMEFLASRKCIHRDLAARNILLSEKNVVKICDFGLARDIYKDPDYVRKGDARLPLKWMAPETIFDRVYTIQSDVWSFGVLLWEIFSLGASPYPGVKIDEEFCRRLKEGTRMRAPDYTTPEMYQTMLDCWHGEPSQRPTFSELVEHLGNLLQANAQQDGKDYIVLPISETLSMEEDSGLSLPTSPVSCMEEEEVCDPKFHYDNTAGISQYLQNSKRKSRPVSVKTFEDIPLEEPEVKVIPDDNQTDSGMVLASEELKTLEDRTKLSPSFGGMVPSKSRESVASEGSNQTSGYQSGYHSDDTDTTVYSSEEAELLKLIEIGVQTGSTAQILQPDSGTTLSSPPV
T3 sequence (Q02763 762-1104): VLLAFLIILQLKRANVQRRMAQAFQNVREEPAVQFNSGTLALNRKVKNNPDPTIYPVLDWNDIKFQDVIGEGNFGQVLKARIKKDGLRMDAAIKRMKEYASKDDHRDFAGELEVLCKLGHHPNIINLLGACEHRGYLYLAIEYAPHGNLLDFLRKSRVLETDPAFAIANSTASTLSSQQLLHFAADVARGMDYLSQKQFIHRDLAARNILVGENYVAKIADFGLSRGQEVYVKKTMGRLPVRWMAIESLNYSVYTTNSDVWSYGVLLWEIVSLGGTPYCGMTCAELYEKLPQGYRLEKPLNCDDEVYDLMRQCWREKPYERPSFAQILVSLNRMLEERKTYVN

Molecule | TIE2-C pIC50 [1] | VEGF-E pIC50 (GST-VEGFR2) | TIE2-E pIC50 [3] | IC50 [1] | IC50 (GST-VEGFR2) | IC50 [3] | VEGF-C pIC50 [2] | IC50 [2]
4-Amino-2-(4-amino-3-(N-methylcarbamoyl)phenyl)-3-(4-methoxyphenyl)furo[2,3-d]pyrimidine [Example 147] | ++ (++ = pIC50 of 6.0–7.0) | ++ (++ = pIC50 of 6.0–7.0) | + (+ = pIC50 of 5.0–6.0) | – | – | – | + (+ = pIC50 of 5.0–6.0) | –
4-Amino-2-(4-fluoro-3-(methylsulfonylamino)phenyl)-3-(4-methoxyphenyl)furo[2,3-d]pyrimidine [Example 178] | ++ (++ = pIC50 of 6.0–7.0) | ++ (++ = pIC50 of 6.0–7.0) | + (+ = pIC50 of 5.0–6.0) | – | – | – | + (+ = pIC50 of 5.0–6.0) | –
4-Amino-2-(5-indolyl)-3-(4-(3-pyridyl)phenyl)furo[2,3-d]pyrimidine [Example 153] | ++ (++ = pIC50 of 6.0–7.0) | – | ++ (++ = pIC50 of 6.0–7.0) | – | – | – | + (+ = pIC50 of 5.0–6.0) | –
4-Amino-3-(4-(2-pyridyl)phenyl)-2-(3-sulfamoylphenyl)furo[2,3-d]pyrimidine [Example 206] | ++ (++ = pIC50 of 6.0–7.0) | +++ (+++ = pIC50 of >7.0) | ++ (++ = pIC50 of 6.0–7.0) | – | – | – | + (+ = pIC50 of 5.0–6.0) | –
4-Amino-3-(4-methoxyphenyl)-2-(3-sulfamoylphenyl)furo[2,3-d]pyrimidine [Example 165] | ++ (++ = pIC50 of 6.0–7.0) | +++ (+++ = pIC50 of >7.0) | ++ (++ = pIC50 of 6.0–7.0) | – | – | – | + (+ = pIC50 of 5.0–6.0) | –
Nc1ncnc2occ(-c3ccc(NC(=O)Nc4cc(C(F)(F)F)ccc4F)cc3)c12 [232 (8C), 4-Amino-3-(4-((2-fluoro-5-(trifluoromethyl)phenyl)-aminocarbonylamino)phenyl)furo[2,3-d]pyrimidine] | – | – | – | < 100 nM | < 100 nM | < 100 nM | – | < 100 nM
COc1ccc(-c2oc3ncnc(N)c3c2-c2ccc(NC(=O)Nc3cc(C(F)(F)F)ccc3F)cc2)cc1 [Example 4] | – | – | – | < 100 nM | < 100 nM | < 100 nM | – | < 100 nM
Nc1ncnc2oc(-c3cccc(S(N)(=O)=O)c3)c(-c3ccc(-c4cccc(F)c4F)cc3)c12 [Example 5] | – | – | – | 100 to 1000 nM | < 100 nM | 100 to 1000 nM | – | 1000 to 10000 nM
Nc1ncnc2oc(-c3ccoc3)c(-c3ccco3)c12 [Example 15] | + (+ = pIC50 of 5.0–6.0) | ++ (++ = pIC50 of 6.0–7.0) | + (+ = pIC50 of 5.0–6.0) | – | – | – | + (+ = pIC50 of 5.0–6.0) | –
CC(=O)Nc1cccc(-c2oc3ncnc(N)c3c2-c2ccc(-c3ccccc3)cc2)c1 [Example 132, 2-(3-Acetamidophenyl)-4-amino-3-(4-biphenyl)furo[2,3-d]pyrimidine] | – | – | – | 100 to 1000 nM | 100 to 1000 nM | 1000 to 10000 nM | – | 1000 to 10000 nM
Nc1ncnc2oc(-c3ccc4[nH]nnc4c3)c(-c3ccc(-c4ccccc4)cc3)c12 [Example 196, 4-Amino-2-(5-benzotriazolyl)-3-(4-biphenyl)furo[2,3-d]pyrimidine] | – | – | – | 100 to 1000 nM | – | 100 to 1000 nM | – | 1000 to 10000 nM

Now from value to molecule, other results behind:

TIE2-C pIC50 [1] | VEGF-E pIC50 (GST-VEGFR2) | TIE2-E pIC50 [3] | IC50 [1] | IC50 (GST-VEGFR2) | IC50 [3] | Molecule | VEGF-C pIC50 [2] | IC50 [2]
++ (++ = pIC50 of 6.0–7.0) | – | ++ (++ = pIC50 of 6.0–7.0) | – | – | – | 4-Amino-3-(4-(4-tert-butylphenyl)phenyl)-2-(3-sulfamoylphenyl)-furo[2,3-d]pyrimidine [Example 204] | + (+ = pIC50 of 5.0–6.0) | –
++ (++ = pIC50 of 6.0–7.0) | – | ++ (++ = pIC50 of 6.0–7.0) | – | – | – | 4-Amino-3-(4-methoxyphenyl)-2-(3-(N-(4-pyridyl)carbamoyl)-phenyl)furo[2,3-d]pyrimidine [Example 108] | + (+ = pIC50 of 5.0–6.0) | –
– | – | – | < 100 nM | < 100 nM | < 100 nM | N#Cc1cccc(-c2oc3ncnc(N)c3c2-c2ccc(NC(=O)Nc3cc(C(F)(F)F)ccc3F)cc2)c1 [Example 8] | – | < 100 nM
+ (+ = pIC50 of 5.0–6.0) | ++ (++ = pIC50 of 6.0–7.0) | + (+ = pIC50 of 5.0–6.0) | – | – | – | Cc1ccc(-c2oc3ncnc(N)c3c2-c2ccc(C)cc2)cc1 [Example 16] | + (+ = pIC50 of 5.0–6.0) | –
– | – | – | 100 to 1000 nM | 100 to 1000 nM | 100 to 1000 nM | NC(=O)c1cccc(-c2oc3ncnc(N)c3c2-c2ccc(-c3ccccc3)cc2)c1 [Example 131, 4-Amino-3-(4-biphenyl)-2-(3-carbamoylphenyl)furo[2,3-d]pyrimidine] | – | 1000 to 10000 nM
– | – | – | 100 to 1000 nM | 100 to 1000 nM | 100 to 1000 nM | CN(C)CCNC(=O)Nc1cccc(-c2oc3ncnc(N)c3c2-c2ccc(-c3ccccc3)cc2)c1 [Example 159, 4-Amino-3-(4-biphenyl)-2-((3-(2-(dimethylamino)ethyl)-aminocarbonylamino)phenyl)furo-[2,3-d]pyrimidine] | – | 100 to 1000 nM
– | – | – | 100 to 1000 nM | < 100 nM | 100 to 1000 nM | Nc1ncnc2oc(-c3cccc(S(N)(=O)=O)c3)c(-c3ccc(-c4ccccc4)cc3)c12 [Example 166, 4-Amino-3-(4-biphenyl)-2-(3-sulfamoylphenyl)furo[2,3-d]pyrimidine] | – | 1000 to 10000 nM
– | – | – | 100 to 1000 nM | < 100 nM | 100 to 1000 nM | NC(=O)Nc1cccc(-c2oc3ncnc(N)c3c2-c2ccc(-c3ccccc3)cc2)c1 [Example 184, 4-Amino-2-(3-(aminocarbonylamino)phenyl)-3-(4-biphenyl)furo[2,3-d]pyrimidine] | – | 1000 to 10000 nM
– | – | – | 100 to 1000 nM | < 100 nM | 100 to 1000 nM | COc1ccc(-c2oc3ncnc(N)c3c2-c2ccc(-c3ccccc3)cc2)cc1NS(C)(=O)=O [Example 189, 4-Amino-3-(4-biphenyl)-2-(4-methoxy-3-(methylsulfonylamino)phenyl)furo[2,3-d]pyrimidine] | – | 1000 to 10000 nM
– | – | – | 100 to 1000 nM | < 100 nM | 100 to 1000 nM | NC(=O)Nc1ccc(-c2oc3ncnc(N)c3c2-c2ccc(-c3ccccc3)cc2)cc1 [Example 192, 4-Amino-3-(4-biphenyl)-2-(4-(aminocarbonylamino)phenyl)furo[2,3-d]pyrimidine] | – | 1000 to 10000 nM
– | – | – | 100 to 1000 nM | – | 100 to 1000 nM | Nc1ncnc2oc(-c3ccc4[nH]cnc4c3)c(-c3ccc(-c4ccccc4)cc3)c12 [Example 198, 4-Amino-2-(5-benzimidazolyl)-3-(4-biphenyl)furo[2,3-d]pyrimidine] | – | 1000 to 10000 nM
